Numbered stars: 1 amine (or outer) side, 2 acyl side, 3 side chain; on linkers, the order of the positions; unused ones are H or OH. Square brackets hold non-standard residues; d marks the D form. Peptide text beside a SMILES is read from it. * marks the point of attachment. Apns = amino acid residue of (2S,3S)-3-amino-2-hydroxy-4-phenylbutanoic acid, O=C([C@@H](O)[C@H](Cc1ccccc1)N[*:1])[*:2]; β3hPhe(2R-OH) = O=C([C@H](O)[C@H](Cc1ccccc1)N[*:1])[*:2]; X2 = O=C([C@H](O)[C@H](CSc1ccccc1)N[*:1])[*:2]; Ala(4-thiazolyl) = N[C@@H](Cc1cscn1)C(=O)O; Benzoyl(3-COOH) = O=C(O)c1cccc(C(=O)*)c1; Oxalyl = O=C(C(=O)[*:2])[*:1]; Tle = CC(C)(C)[C@H](N)C(=O)O; 3Abz = Nc1cccc(C(=O)O)c1; 2Abz = Nc1ccccc1C(=O)O; Dap = NC[C@H](N)C(=O)O; Aib = CC(C)(N)C(=O)O
Target: T1, recombinant human BACE-1 (rhBACE-1) (Homo sapiens, UniProt P56817)
T1 construct: expressed as only an extracellular region (amino acid 1-460 residues) of recombinant human β-secretase; His tag (C); purchased R&D systems (Minneapolis, Minn.); host or cells: murine myeloma cell line NS0
Experiment: BACE1 inhibitory activity, reverse phase HPLC quantitation of N-terminal fragment of fluorogenic substrate
Format: biochemical
From the text: Experiment Regarding Measurement of BACE1 Inhibitory Activity
Enzyme Used in Measurement
As an enzyme having β-secretase activity, recombinant human BACE-1 (rhBACE-1) purchased from R&D systems (Minneapolis, Minn.) was used. rhBACE-1 is expressed as only an extracellular region (amino acid 1-460 residues) of recombinant human β-secretase, with a His tag at its carboxyl terminal in murine myeloma cell line, NS0. Purified secreted rhBACE1 is a mixture of a pro entity (about 75 kDa) and a mature entity (about 72 kDa).
Assessment of Enzyme Inhibitory Activity
Enzyme inhibitory activity of an inhibitor was assessed by quantitating an N-terminal fragment produced aftercleaving the substrate with BACE1 by reverse HPLC using (7-methoxycoumarin-4-yl)acetyl-[…]2,4-dinitrophenyl)-Arg-Arg-NH2 purchased from Peptide Institute (Osaka, Japan) as a substrate for BACE1. To 40 μL of 62.5 mM 2-(N-morpholino)ethansulfonic acid (MES)-CH3COOH—NaOH buffer (pH 5.0), were added 1 μL of a solution of an inhibitor diluted with DMSO (100 μM), 4 μL of rhBACE-1 (6.25 ng/μL), and 5 μL of an aqueous solution (50% DMSO) of 250 μM substrate (7-methoxycoumarin-4-yl)acetyl-[…]2,4-dinitrophenyl)-Arg-Arg-NH2 to initiate an enzyme reaction. After incubation at 37° C. for 60 minutes, 20 μL of 20% trichloroacetic acid was added to stop the reaction. And, inhibition % was calculated by measuring a fluorescent intensity of the N-terminal fragment (Ex, 328 nm; Em, 393 nm) using reverse phase HPLC (linear gradient of MeCN in aqueous TFA; flow rate, 1.0 mL/min).
BACE1 Inhibitory Activity
Enzyme inhibitory activity of an inhibitor was assessed by quantitating a N-terminal fragment produced after cleavage of a substrate with BACE1 by reverse phase HPLC using (7-methoxycoumarin-4-yl)acetyl-[…]2,4-dinitrophenyl)-Arg-Arg-NH2 purchased from Peptide Institute (Osaka, Japan) as a substrate for BACE1. Recombinant human BACE-1 purchased from R&D systems (Minneapolis, Minn.) was used. To 40 μL of 62.5 mM 2-(N-morpholino)ethansulfonic acid (MES)-CH3COOH—NaOH buffer (pH 5.0), were added 1 μL of a solution of an inhibitor diluted with DMSO (100 μM), 4 μL of BACE1 (6.25 ng/μL), and 5 μL of an aqueous solution (50% DMSO) of 250 μM substrate (7-methoxycoumarin-4-yl)acetyl-[…]2,4-dinitrophenyl)-Arg-Arg-NH2 to initiate an enzyme reaction. After incubation at 37° C. for 60 minutes, 20 μL of 20% trichloroacetic acid was added to stop a reaction. Inhibition % was calculated by measuring a fluorescent intensity of the N-terminal fragment (Ex, 328 nm; Em, 393 nm) using reverse phase HPLC (linear gradient of MeCN in aqueous TFA; flow rate, 1.0 mL/min).

[1] = 1 μL of inhibitor solution in DMSO (100 μM) in 50 μL reaction, MES buffer pH 5.0, 37° C., 60 minutes

T1 sequence (P56817 22-460 limits assumed): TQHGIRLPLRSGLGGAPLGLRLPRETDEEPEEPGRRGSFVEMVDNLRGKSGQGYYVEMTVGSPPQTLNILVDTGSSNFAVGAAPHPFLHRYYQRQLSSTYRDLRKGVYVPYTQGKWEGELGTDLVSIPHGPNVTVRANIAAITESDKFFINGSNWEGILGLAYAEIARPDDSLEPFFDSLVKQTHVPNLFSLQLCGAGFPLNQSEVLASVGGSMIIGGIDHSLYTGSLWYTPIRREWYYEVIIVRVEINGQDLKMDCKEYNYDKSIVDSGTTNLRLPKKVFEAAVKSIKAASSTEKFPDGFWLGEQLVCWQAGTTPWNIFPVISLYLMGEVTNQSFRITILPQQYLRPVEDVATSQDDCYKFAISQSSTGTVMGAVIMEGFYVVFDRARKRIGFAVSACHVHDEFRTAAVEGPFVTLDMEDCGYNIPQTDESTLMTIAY

| Molecule | inhibition at 2 µM [1] | other results |
| --- | --- | --- |
| Cc1cc(NC(=O)[C@H](O)[C@H](Cc2ccccc2)NC(=O)[C@H](CC(C)C)NC(=O)[C@@H](NC(=O)[C@@H](N)CCC(=O)O)C(C)C)cc(C)c1OCC(=O)O [Example 178] | 73.4% |  |
| CC(C)C[C@H](NC(=O)[C@@H](NC(=O)[C@@H](N)CCC(=O)O)C(C)C)C(=O)N[C@@H](Cc1ccccc1)[C@@H](O)C(=O)N[C@@H](CC(=O)O)C(=O)N[C@H](C(=O)N[C@@H](CCC(=O)O)C(=O)N[C@@H](Cc1ccccc1)C(=O)O)C(C)(C)C [Example 86] (H-EVL[β3hPhe(2R-OH)]D[Tle]EF-OH) | 75% |  |
| CCOC(=O)C(=O)NC[C@H](N)C(=O)N[C@H](C(=O)N[C@@H](CC(C)C)C(=O)N[C@@H](Cc1ccccc1)[C@@H](O)C(=O)Nc1cc(C(=O)OC)cc(C(=O)OC)c1)C(C)C [Example 104] | 54.4% |  |
| CC(C)[C@H](NC(=O)[C@@H](N)CCC(=O)O)C(=O)N[C@@H](Cc1ccc(Cl)cc1)C(=O)N[C@@H](Cc1ccccc1)[C@@H](O)C(=O)Nc1cccc(C(=O)O)c1 [Example 168] | 60% |  |
| CC(C)C[C@H](NC(=O)[C@@H](NC(=O)[C@H](CN)NC(=O)C(=O)O)C(C)C)C(=O)N[C@@H](Cc1ccccc1)[C@@H](O)C(=O)Nc1ccc(C(=O)O)cc1 [Example 74] |  | inhibition at 100 µM (stock) [1]: 90.5% |
| CC(C)C[C@H](NC(=O)[C@@H](NC(=O)[C@@H](N)CNC(=O)C(=O)O)C(C)C)C(=O)N[C@@H](Cc1ccccc1)[C@@H](O)C(=O)Nc1ccc(C(=O)O)cc1 [Example 68] |  | inhibition at 100 µM (stock) [1]: 98.8% |
| CC(C)C[C@H](NC(=O)[C@@H](NC(=O)[C@@H](N)CCC(=O)O)C(C)C)C(=O)N[C@@H](Cc1ccccc1)[C@@H](O)C(=O)N[C@@H](CC(=O)O)C(=O)N[C@@H](C)C(=O)Nc1ccccc1C(=O)O [Example 87] (H-EVL[β3hPhe(2R-OH)]DA[2Abz]-OH) |  | inhibition at 100 µM (stock) [1]: 72.2% |
| CC(C)C[C@H](NC(=O)[C@@H](NC(=O)[C@@H](N)CCC(=O)O)C(C)(C)C)C(=O)N[C@@H](Cc1ccccc1)[C@@H](O)C(=O)Nc1cccc(C(=O)O)c1 [Example 151] | 57% |  |
| CCCC[C@H](NC(=O)[C@@H](NC(=O)[C@@H](N)CCC(=O)O)C(C)C)C(=O)N[C@@H](Cc1ccccc1)[C@@H](O)C(=O)Nc1cccc(C(=O)O)c1 [Example 141] | 67.5% |  |
| CC(C)[C@H](NC(=O)[C@@H](N)CCC(=O)O)C(=O)N[C@@H](Cc1cscn1)C(=O)N[C@@H](Cc1ccccc1)[C@@H](O)C(=O)N[C@@H](CC(=O)O)C(=O)N[C@@H](C)C(=O)N[C@@H](CCC(=O)O)C(=O)N[C@@H](Cc1ccccc1)C(=O)O [Example 99] (H-EV[Ala(4-thiazolyl)][β3hPhe(2R-OH)]DAEF-OH) | 58% |  |
| CC(C)C[C@H](NC(=O)[C@@H](NC(=O)[C@@H](N)CNC(=O)c1ccc(O)cc1O)C(C)C)C(=O)N[C@@H](Cc1ccccc1)[C@@H](O)C(=O)Nc1cccc(C(=O)O)c1 [Example 173] |  | inhibition at 100 µM (stock) [1]: 86.1% |
| CC(C)C[C@H](NC(=O)[C@@H](NC(=O)[C@@H](N)CCC(=O)O)C(C)C)C(=O)N[C@@H](Cc1ccccc1)[C@@H](O)C(=O)N[C@@H](CC(=O)O)C(=O)NC(C)(C)C(=O)N[C@@H](CCC(=O)O)C(=O)O [Example 91] (H-EVL[β3hPhe(2R-OH)]D[Aib]E-OH) | 68.9% |  |
| H-Glu-Val-Leu-Apns-Asp-Ala-Glu-Phe-OH ({H2N-Glu-Val-Leu-Apns}-DAEF-OH; SMILES CC(C)C[C@H](NC(=O)[C@@H](NC(=O)[C@@H](N)CCC(=O)O)C(C)C)C(=O)N[C@@H](Cc1ccccc1)[C@H](O)C(=O)N[C@@H](CC(=O)O)C(=O)N[C@@H](C)C(=O)N[C@@H](CCC(=O)O)C(=O)N[C@@H](Cc1ccccc1)C(=O)O) [Example 18] |  | Activity (BACE1 inhibition %) [1]: 53.38% |
| CC(C)[C@H](NC(=O)[C@@H](N)CNC(=O)c1cc(O)ccc1O)C(=O)N[C@@H](CC1CCCCC1)C(=O)N[C@@H](Cc1ccccc1)[C@@H](O)C(=O)Nc1cccc(-c2nnn[nH]2)c1 [Example 188] |  | inhibition at 100 µM (stock) [1]: 99.5% |
| H-Glu-Val-Leu-Pns-Asp-OH [Example 34] |  | Activity (BACE1 inhibition %) [1]: 63.71% |
| CC(C)[C@H](NC(=O)[C@@H](N)CCC(=O)O)C(=O)N[C@@H](Cc1cc2ccccc2[nH]1)C(=O)N[C@@H](Cc1ccccc1)[C@@H](O)C(=O)Nc1cccc(C(=O)O)c1 [Example 160] | 71.3% |  |
| CC(C)C[C@H](NC(=O)[C@@H](NC(=O)[C@@H](N)CCC(=O)O)C(C)C)C(=O)N[C@@H](Cc1ccccc1)[C@@H](O)C(=O)N[C@@H](CC(=O)O)C(=O)Nc1cccc(C(=O)O)c1 [Example 79] (H-EVL[β3hPhe(2R-OH)]D[3Abz]-OH) | 85.3% |  |
| CC(C)C[C@H](NC(=O)[C@@H](NC(=O)[C@H](CN)NC(=O)C(=O)O)C(C)C)C(=O)N[C@@H](Cc1ccccc1)[C@@H](O)C(=O)N[C@@H](CC(=O)O)C(=O)N[C@@H](C)C(=O)N[C@@H](CCC(=O)O)C(=O)O [Example 85] (Oxalyl-[Dap]VL[β3hPhe(2R-OH)]DAE-OH) | 75.2% |  |
| CC(C)C[C@H](NC(=O)[C@@H](NC(=O)[C@@H](N)CCC(=O)O)C(C)C)C(=O)N[C@@H](CSc1ccccc1)[C@@H](O)C(=O)N[C@@H](CC(=O)O)C(=O)N[C@@H](C)C(=O)N[C@@H](CCC(=O)O)C(=O)N[C@@H](Cc1ccccc1)C(=O)O [Example 82] (H-EVL[X2]DAEF-OH) | 81.8% |  |
| CC(C)C[C@H](NC(=O)[C@@H](NC(=O)[C@@H](N)CNC(=O)c1cccc(C(=O)O)c1)C(C)C)C(=O)N[C@@H](Cc1ccccc1)[C@@H](O)C(=O)N[C@@H](CC(=O)O)C(=O)N[C@@H](C)C(=O)N[C@@H](CCC(=O)O)C(=O)O [Example 84] (H-[Dap](Benzoyl(3-COOH))VL[β3hPhe(2R-OH)]DAE-OH) | 79.1% |  |
| H-Glu-Val-Leu-Pns-Asp-Ala-Phe-Phe-OH (H-EVL[β3hPhe(2R-OH)]DAFF-OH; SMILES CC(C)C[C@H](NC(=O)[C@@H](NC(=O)[C@@H](N)CCC(=O)O)C(C)C)C(=O)N[C@@H](Cc1ccccc1)[C@@H](O)C(=O)N[C@@H](CC(=O)O)C(=O)N[C@@H](C)C(=O)N[C@@H](Cc1ccccc1)C(=O)N[C@@H](Cc1ccccc1)C(=O)O) [Example 31] |  | Activity (BACE1 inhibition %) [1]: 66.56% |
| H-Glu-Val-Leu-Pns-Asp-Ala-Gly-Phe-OH [Example 44] |  | Activity (BACE1 inhibition %) (pH 5, 100 µM): 56.30% |
| CC(C)C[C@H](NC(=O)[C@@H](NC(=O)[C@@H](N)CCC(=O)O)C(C)C)C(=O)N[C@@H](Cc1ccccc1)[C@@H](O)C(=O)N[C@@H](CC(=O)O)C(=O)N[C@@H](C)C(=O)Nc1cccc(C(=O)O)c1 [Example 92] (H-EVL[β3hPhe(2R-OH)]DA[3Abz]-OH) | 65.4% |  |
| H-Glu-Val-Leu-Pns-Glu-Ala-Glu-Phe-OH (H-EVL[β3hPhe(2R-OH)]EAEF-OH; SMILES CC(C)C[C@H](NC(=O)[C@@H](NC(=O)[C@@H](N)CCC(=O)O)C(C)C)C(=O)N[C@@H](Cc1ccccc1)[C@@H](O)C(=O)N[C@@H](CCC(=O)O)C(=O)N[C@@H](C)C(=O)N[C@@H](CCC(=O)O)C(=O)N[C@@H](Cc1ccccc1)C(=O)O) [Example 15] |  | Activity (BACE1 inhibition %) [1]: 54.52% |
| CC(C)C[C@H](NC(=O)[C@@H](NC(=O)[C@@H](N)CCC(=O)O)C(C)C)C(=O)N[C@@H](Cc1ccccc1)[C@@H](O)C(=O)NC1CCCC(C(=O)O)C1 (stereo partly shown) [Example 155] |  | inhibition at 100 µM (stock) [1]: 69.7% |
| CC(C)C[C@H](NC(=O)[C@@H](NC(=O)[C@@H](N)CCC(=O)O)C(C)C)C(=O)N[C@@H](Cc1ccccc1)[C@@H](O)C(=O)Nc1ccc(CC(=O)O)cc1 [Example 89] | 69.8% |  |
| CC(C)C[C@H](NC(=O)[C@@H](NC(=O)[C@@H](N)CCC(=O)O)C(C)C)C(=O)N[C@@H](Cc1ccccc1)[C@@H](O)C(=O)N[C@@H](CC(=O)O)C(=O)N[C@@H](C)C(=O)N[C@@H](CC(=O)O)C(=O)O [Example 98] (H-EVL[β3hPhe(2R-OH)]DAD-OH) | 58.4% |  |
| CC[C@H](C)[C@H](NC(=O)[C@@H](NC(=O)[C@@H](N)CCC(=O)O)C(C)C)C(=O)N[C@@H](Cc1ccccc1)[C@@H](O)C(=O)Nc1cccc(C(=O)O)c1 [Example 153] | 65.8% |  |

From patent US7312188B2, “Peptide derivatives having β-secretase inhibitory activity” (priority 2003, dated 2007)
